Laboratory results: the supplement of paper PMC6045584
± gives the standard deviation of the averaged measurements.

Tests used:
CARBOPLATIN [1] = compound: T1, O=C(O)C1(C(=O)O)CCC1.[NH2-].[NH2-].[Pt+2] [CARBOPLATIN]; test: surviving fraction relative to DMSO-only wells; higher = less growth inhibition; conditions: exposure time: 5 days
How it was run: (§1)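 After seeding at 250–500 cells per well in 384-well plates and a 24-hour wait, log-phase tumour cell lines were exposed without interruption for five days to inhibitors at 0.5, 1, 5, 10, 50, 100, 500 and 1000 nM. CellTiter-Glo luminescence was recorded after 10 minutes at room temperature. Viability is reported as surviving fraction, the luminescence normalised to the median of DMSO-only wells.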

[2] = compound: CC(=O)NCC(=O)N1[C@@H]2CC[C@H]1c1ccc(Nc3ncc(C(F)(F)F)c(NC4CCC4)n3)cc12; test: as above; conditions: exposure time: 5 days
How it was run: as §1

PACLITAXEL [3] = compound: T2, CC(=O)O[C@H]1C(=O)[C@@]2(C)[C@H]([C@H](OC(=O)c3ccccc3)[C@]3(O)C[C@H](OC(=O)[C@H](O)[C@@H](NC(=O)c4ccccc4)c4ccccc4)C(C)=C1C3(C)C)[C@]1(OC(C)=O)CO[C@@H]1C[C@@H]2O [PACLITAXEL]; test: as above; conditions: exposure time: 5 days
How it was run: as §1

CELECOXIB [4] = compound: T3, Cc1ccc(-c2cc(C(F)(F)F)nn2-c2ccc(S(N)(=O)=O)cc2)cc1 [CELECOXIB]; test: as above; conditions: exposure time: 5 days
How it was run: as §1

CAMPTOTHECIN [5] = compound: T4, CC[C@@]1(O)C(=O)OCc2c1cc1n(c2=O)Cc2cc3ccccc3nc2-1 [CAMPTOTHECIN]; test: as above; conditions: exposure time: 5 days
How it was run: as §1

YM155 [6] = compound: T5, COCC[n+]1c2c(n(Cc3cnccn3)c1C)C(=O)c1ccccc1C2=O [YM155]; test: as above; conditions: exposure time: 5 days
How it was run: as §1

GEFITINIB [7] = compound: T6, COc1cc2ncnc(Nc3ccc(F)c(Cl)c3)c2cc1OCCCN1CCOCC1 [GEFITINIB]; test: as above; conditions: exposure time: 5 days
How it was run: as §1

[8] = compound: CC(=O)c1c(C)c2cnc(Nc3ccc(N4CCNCC4)cn3)nc2n(C2CCCC2)c1=O; test: as above; conditions: exposure time: 5 days
How it was run: as §1

OSI-906 [9] = compound: T7, C[C@]1(O)C[C@@H](c2nc(-c3ccc4ccc(-c5ccccc5)nc4c3)c3c(N)nccn32)C1 [OSI-906]; test: as above; conditions: exposure time: 5 days
How it was run: as §1

CARBOPLATIN [10] = compound: T1, CARBOPLATIN; test: area under dose-response curve of surviving fraction (unscaled, Aref=0) (surviving fraction x log10(nM)); higher = more resistant; conditions: exposure time: 5 days; dose range 0.5-1000 nM
How it was run: (§2)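 Surviving fractions were fitted by 3-parameter logistic regression in the drc R package to give dose-response survival curves. They came from tumour cell lines treated for five days with eight inhibitor concentrations from 0.5 to 1000 nM and read by CellTiter-Glo luminescence against DMSO-only wells. The area under the curve is the unscaled activity area. It was calculated over log10 dose with Aref = 0.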

[11] = compound: CC(=O)NCC(=O)N1[C@@H]2CC[C@H]1c1ccc(Nc3ncc(C(F)(F)F)c(NC4CCC4)n3)cc12; test: as above; conditions: exposure time: 5 days; dose range 0.5-1000 nM
How it was run: as §2

PACLITAXEL [12] = compound: T2, PACLITAXEL; test: as above; conditions: exposure time: 5 days; dose range 0.5-1000 nM
How it was run: as §2

CELECOXIB [13] = compound: T3, CELECOXIB; test: as above; conditions: exposure time: 5 days; dose range 0.5-1000 nM
How it was run: as §2

CAMPTOTHECIN [14] = compound: T4, CAMPTOTHECIN; test: as above; conditions: exposure time: 5 days; dose range 0.5-1000 nM
How it was run: as §2

YM155 [15] = compound: T5, YM155; test: as above; conditions: exposure time: 5 days; dose range 0.5-1000 nM
How it was run: as §2

GEFITINIB [16] = compound: T6, GEFITINIB; test: as above; conditions: exposure time: 5 days; dose range 0.5-1000 nM
How it was run: as §2

[17] = compound: CC(=O)c1c(C)c2cnc(Nc3ccc(N4CCNCC4)cn3)nc2n(C2CCCC2)c1=O; test: as above; conditions: exposure time: 5 days; dose range 0.5-1000 nM
How it was run: as §2

OSI-906 [18] = compound: T7, OSI-906; test: as above; conditions: exposure time: 5 days; dose range 0.5-1000 nM
How it was run: as §2

HCT15 LARGE INTESTINE
surviving fraction (CARBOPLATIN [1]; 0.5 nM): 1.1 ± 0.067 | surviving fraction (CARBOPLATIN [1]; 1 nM): 1.04 ± 0.056 | surviving fraction (CARBOPLATIN [1]; 5 nM): 1.04 ± 0.065 | surviving fraction (CARBOPLATIN [1]; 10 nM): 1.03 ± 0.096 | surviving fraction (CARBOPLATIN [1]; 50 nM): 1.06 ± 0.072 | surviving fraction (CARBOPLATIN [1]; 100 nM): 1.09 ± 0.045 | surviving fraction (CARBOPLATIN [1]; 500 nM): 1.06 ± 0.036 | surviving fraction (CARBOPLATIN [1]; 1000 nM): 1.08 ± 0.04 | surviving fraction ([2]; 0.5 nM): 0.969 ± 0.062 | surviving fraction ([2]; 1 nM): 0.9727 ± 0.009 | surviving fraction ([2]; 5 nM): 0.971 ± 0.037 | surviving fraction ([2]; 10 nM): 0.98 ± 0.036 | surviving fraction ([2]; 50 nM): 0.394 ± 0.11 | surviving fraction ([2]; 100 nM): 0.211 ± 0.034 | surviving fraction ([2]; 500 nM): 0.17 ± 0.041 | surviving fraction ([2]; 1000 nM): 0.0853 ± 0.0072 | surviving fraction (PACLITAXEL [3]; 0.5 nM): 1.01 ± 0.012 | surviving fraction (PACLITAXEL [3]; 1 nM): 1.07 ± 0.024 | surviving fraction (PACLITAXEL [3]; 5 nM): 0.95 ± 0.077 | surviving fraction (PACLITAXEL [3]; 10 nM): 0.861 ± 0.074 | surviving fraction (PACLITAXEL [3]; 50 nM): 0.255 ± 0.064 | surviving fraction (PACLITAXEL [3]; 100 nM): 0.0833 ± 0.0076 | surviving fraction (PACLITAXEL [3]; 500 nM): 0.04 ± 0.0036 | surviving fraction (PACLITAXEL [3]; 1000 nM): 0.0453 ± 0.0032 | surviving fraction (CELECOXIB [4]; 0.5 nM): 1.02 ± 0.062 | surviving fraction (CELECOXIB [4]; 1 nM): 1.03 ± 0.031 | surviving fraction (CELECOXIB [4]; 5 nM): 1.06 ± 0.039 | surviving fraction (CELECOXIB [4]; 10 nM): 1.04 ± 0.022 | surviving fraction (CELECOXIB [4]; 50 nM): 1.07 ± 0.061 | surviving fraction (CELECOXIB [4]; 100 nM): 1.07 ± 0.077 | surviving fraction (CELECOXIB [4]; 500 nM): 1.09 ± 0.053 | surviving fraction (CELECOXIB [4]; 1000 nM): 1.1 ± 0.044 | surviving fraction (CAMPTOTHECIN [5]; 0.5 nM): 0.33 ± 0.031 | surviving fraction (CAMPTOTHECIN [5]; 1 nM): 0.779 ± 0.041 | surviving fraction (CAMPTOTHECIN [5]; 5 nM): 0.232 ± 0.083 | surviving fraction (CAMPTOTHECIN [5]; 10 nM): 0.0333 ± 0.0047 | surviving fraction (CAMPTOTHECIN [5]; 50 nM): 0.0227 ± 0.0038 | surviving fraction (CAMPTOTHECIN [5]; 100 nM): 0.0337 ± 0.0038 | surviving fraction (CAMPTOTHECIN [5]; 500 nM): 0.0207 ± 0.0021 | surviving fraction (CAMPTOTHECIN [5]; 1000 nM): 0.0277 ± 0.0038 | surviving fraction (YM155 [6]; 0.5 nM): 0.916 ± 0.056 | surviving fraction (YM155 [6]; 1 nM): 1.01 ± 0.051 | surviving fraction (YM155 [6]; 5 nM): 0.975 ± 0.017 | surviving fraction (YM155 [6]; 10 nM): 0.974 ± 0.029 | surviving fraction (YM155 [6]; 50 nM): 0.467 ± 0.028 | surviving fraction (YM155 [6]; 100 nM): 0.185 ± 0.029 | surviving fraction (YM155 [6]; 500 nM): 0.061 ± 0.0027 | surviving fraction (YM155 [6]; 1000 nM): 0.0557 ± 0.0031 | surviving fraction (GEFITINIB [7]; 0.5 nM): 1.05 ± 0.033 | surviving fraction (GEFITINIB [7]; 1 nM): 1.04 ± 0.017 | surviving fraction (GEFITINIB [7]; 5 nM): 0.982 ± 0.025 | surviving fraction (GEFITINIB [7]; 10 nM): 1.04 ± 0.054 | surviving fraction (GEFITINIB [7]; 50 nM): 1.07 ± 0.04 | surviving fraction (GEFITINIB [7]; 100 nM): 1.046 ± 0.0061 | surviving fraction (GEFITINIB [7]; 500 nM): 1.04 ± 0.039 | surviving fraction (GEFITINIB [7]; 1000 nM): 1.07 ± 0.052 | surviving fraction ([8]; 0.5 nM): 1.09 ± 0.044 | surviving fraction ([8]; 1 nM): 1.05 ± 0.028 | surviving fraction ([8]; 5 nM): 1.06 ± 0.025 | surviving fraction ([8]; 10 nM): 1.03 ± 0.052 | surviving fraction ([8]; 50 nM): 1.14 ± 0.055 | surviving fraction ([8]; 100 nM): 1.1 ± 0.038 | surviving fraction ([8]; 500 nM): 1.12 ± 0.058 | surviving fraction ([8]; 1000 nM): 1.11 ± 0.035 | surviving fraction (OSI-906 [9]; 0.5 nM): 0.829 ± 0.073 | surviving fraction (OSI-906 [9]; 1 nM): 0.82 ± 0.048 | surviving fraction (OSI-906 [9]; 5 nM): 0.811 ± 0.069 | surviving fraction (OSI-906 [9]; 10 nM): 0.871 ± 0.086 | surviving fraction (OSI-906 [9]; 50 nM): 0.929 ± 0.061 | surviving fraction (OSI-906 [9]; 100 nM): 0.918 ± 0.023 | surviving fraction (OSI-906 [9]; 500 nM): 0.911 ± 0.073 | surviving fraction (OSI-906 [9]; 1000 nM): 0.921 ± 0.04 | area under dose-response curve (CARBOPLATIN [10]): 3.51 | area under dose-response curve [11]: 2.05 | area under dose-response curve (PACLITAXEL [12]): 1.76 | area under dose-response curve (CELECOXIB [13]): 3.49 | area under dose-response curve (CAMPTOTHECIN [14]): 0.543 | area under dose-response curve (YM155 [15]): 2.03 | area under dose-response curve (GEFITINIB [16]): 3.44 | area under dose-response curve [17]: 3.59 | area under dose-response curve (OSI-906 [18]): 2.9
